This passage reports GI50 and TGI results from PubChem BioAssay (NCI).

Each structure is given as a SMILES string.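 The compound was tested at five concentrations on cells cultured in 96-well plates, with a 48-hour exposure period. Abbreviation: GI50, concentration required for 50% inhibition of growth. TGI marks complete inhibition of growth.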 A value given as a limit tells only on which side of the number the result lay.

What all share (test): NCI-60 cell line screen, 48 h
Experiment [1] has as its system COLO 205 colon.
Experiment [2] has as its system HOP-92 NSCLC.
In experiment [3] the test system is OVCAR-3 ovarian.
Experiment [4] concerns HCT-116 colon.
Experiment [5] relates to SW-620 colon.
The subject of experiment [6] is A549 NSCLC.
For experiment [7], the system named is SK-MEL-2 melanoma.
In experiment [8] the test system is NCI-H522 lung.
The test system of experiment [9] is SF-268 CNS.
For experiment [10], the system named is MOLT-4 leukemia.

Take `CC(C)(C)n1cc(-c2ccnc(NCCNS(=O)(=O)c3ccc(Br)cc3)c2)c(-c2cccc(O)c2)n1`: the GI50 in experiment [1] was 1490 nM; in experiment [2] it was 1510 nM; in experiment [3] it was 1.85 µM; in experiment [4], 1.44 µM; in [5], 1.72 µM; in [6], 2190 nM. Further, the GI50 in experiment [7] was 1930 nM; in [8], 1790 nM; in [9], 2040 nM. The TGI in experiment [1] came to 3.13 µM; in experiment [2] it was 3.86 µM; in experiment [3], 3.68 µM; in experiment [4], 2.86 µM; in [5] it was 3.46 µM; in experiment [6], 6.5 µM. In addition, the TGI in experiment [7] stood at 3.99 µM; in experiment [8] it was 4.04 µM; in [9] it was 5.96 µM.

Regarding `Cc1nnc([S-])s1.[Au+].c1ccc([PH+](c2ccccc2)c2ccccc2)cc1`, the GI50 is 1820 nM in experiment [2]; 1.73 µM in experiment [3]; 2340 nM in experiment [10]; 1640 nM in experiment [7]; 692 nM in experiment [8]. The TGI was 3.24 µM in experiment [2]; 3.14 µM in [3]; 6.76 µM in experiment [10]; 3.11 µM in experiment [7]; 3.17 µM in [8].

Regarding `c1ccc2c(c1)CCCc1cc3ccccc3nc1-2`, the TGI in experiment [1], in experiment [3], in experiment [4], in experiment [5], in [10] and in experiment [6] was greater than 100 µM in each case. The TGI in experiment [7], in [8] and in experiment [9] was greater than 100 µM throughout.

Regarding `N#Cc1c2c(c(N=[N+]=[N-])n3c1nc1ccccc13)CCCC2`, the TGI in [1] is 13.1 µM; in [3], 10.3 µM; in experiment [4] it was 3.51 µM; in [5], 4.31 µM; in [10], 5.37 µM; in experiment [6] it was 17 µM. The TGI in [7] was 3.58 µM; in experiment [9] it was 16 µM.

As to `Brc1ccc2c(c1)C1(c3cc(Br)ccc3-2)c2cc(Br)ccc2-c2ccc(Br)cc21`, the TGI in experiment [1], in [3], in experiment [4], in experiment [5], in experiment [10] and in [6] was greater than 100 µM each time. Besides, the TGI in [7], in experiment [8] and in experiment [9] was greater than 100 µM in each case.

`Cc1cc(N(CCC#N)S(=O)(=O)c2ccccc2)ccc1C=O`: the TGI in [1], in experiment [3], in [4], in experiment [5], in [10] and in experiment [6] was greater than 100 µM in each case. For the same molecule, the TGI in [7], in experiment [8] and in [9] was greater than 100 µM throughout.

Turning to `CC(=O)NC1C(OCc2ccccc2)OC(COC(=O)CCCCCCCCCCNC(=O)c2cccc3c(=O)c4ccccc4[nH]c23)C(O)C1OC(C)C(=O)NC(C)C(=O)NC(CCC(N)=O)C(N)=O` (configuration not stated), the TGI in [1], in [3], in experiment [4], in experiment [5], in [10] and in [6] was greater than 100 µM in each case. Moreover, the TGI in experiment [7], in experiment [8] and in experiment [9] was greater than 100 µM each time.

With `S=C(Nc1ccccc1)Nc1[nH]c(=S)sc1-c1nc2ccccc2[nH]1`, the TGI in experiment [1], in experiment [3], in [5], in experiment [10], in experiment [6] and in experiment [7] was greater than 100 µM throughout. Moreover, the TGI in [8] and in experiment [9] was greater than 100 µM throughout.

In the case of `CC(C)OP(=O)(OC(C)C)C(N(C)C)P(=O)(OC(C)C)OC(C)C.[Cl][Sn]([Cl])([Cl])[c]1ccccc1`, the GI50 is 2100 nM in experiment [1]; 5.64 µM in experiment [3]; 3.26 µM in experiment [5]; 1970 nM in [10]; 2210 nM in experiment [6]; 2150 nM in experiment [7]. The GI50 in experiment [8] was 3020 nM; in experiment [9], 2900 nM. The TGI came to 12.5 µM in experiment [1]; 53 µM in experiment [3]; 22.3 µM in experiment [5]; 7.39 µM in experiment [10]; 5.28 µM in experiment [6]; 5.3 µM in experiment [7]. Moreover, the TGI came to 9.78 µM in [8] and 31.7 µM in experiment [9].

As to `Cc1nnc2n1N=C(CC(=O)c1ccc(O)cc1O)CN2N`, the TGI was 35.8 µM in experiment [1]; greater than 100 µM in experiment [4]; 31 µM in experiment [5]; greater than 100 µM in experiment [6]; greater than 100 µM in experiment [7]; greater than 100 µM in [9].

Regarding `O=C1OCC(C(=O)c2cccc(O)c2)C1=O` (configuration not stated), the TGI in [1], in experiment [2], in [3], in experiment [4], in [5] and in experiment [6] was greater than 100 µM each time. Moreover, the TGI in experiment [8] and in experiment [9] was greater than 100 µM in each case.

For the molecule `COc1ccc(C[C@H]2C[C@@H](O)[C@@H](C)C/C=C/Cc3cccc(O)c3C(=O)O2)cn1`, the GI50 is 34000 nM in experiment [1]; 50.5 µM in experiment [3]; 19.5 µM in [4]; 31.6 µM in [5]; 35400 nM in experiment [10]; 28600 nM in [6]. For the same molecule, the GI50 in experiment [7] is 14700 nM; in [8] it was 14200 nM; in experiment [9], 15900 nM. The TGI in experiment [1] is greater than 100 µM; in [3] it was greater than 100 µM; in experiment [4], 37.6 µM; in experiment [5], greater than 100 µM; in [10], greater than 100 µM; in experiment [6] it was greater than 100 µM. The results for the TGI in experiment [7], in experiment [8] and in experiment [9] were 34.5 µM, 49.1 µM and 53.5 µM, respectively.

With `O=C(O)c1cc(Cl)cc(NC(=O)C(Cl)Cl)c1Cl`, the TGI in [1], in experiment [3], in experiment [4], in [5], in [10] and in [6] was greater than 100 µM throughout. Further, the TGI in experiment [7], in [8] and in experiment [9] was greater than 100 µM each time.
